From patent publication US20110165085A1, “TUMOR SELECTIVE FLUORESCENT STAINING AGENT” (THE UNIVERSITY OF TOKYO, priority 2006, published 2011)

Key:
[1] = tested on: RGK1 (transformed, cancer model) and RGM1 (normal gastric mucosal epithelium) cells; experiment: Flow cytometry screening: average fluorescence intensity ratio of RGK1 relative to RGM1; format: cell-based, rat
Protocol: Screening for candidate compounds was performed in a cultured cell system. As cultured cells, rat normal gastric mucosal epithelium derived cells, RGM1, and transformed cells thereof, RGK1, were used as model cells of normal cell and cancer cell, respectively. For the culture of RGM1 and RGK1, a DMEM/HAM F12 (1:1) medium (10% FBS, 0.1% penicillin streptomycin) was used. Each of the compounds shown below (concentration: 0-1 μM) was loaded on these cells for 10 minutes, then the medium was replaced with the medium not containing the compounds, and after a given time, average fluorescence intensity was determined by flow cytometry. Effectiveness of each compound was evaluated on the basis of average of fluorescence intensity ratio of RGK1 relative to RGM1.
Various ester derivatives converted from acetyl ester of FDA shown in Table I were compared by flow cytometry in the same manner as that used in Example 1.

[2] = tested on: intracellular esterase (RGK1 and RGM1 cell lysates); experiment: Hydrolytic enzyme activity for FDA in the two types of cell lysates; format: biochemical, rat
Description: FDA is an esterase-sensitive fluorescent probe, and it enters into a cell by diffusion, then is hydrolyzed by an intracellular esterase to produce a fluorescent fluorescein, and gradually leaks out of the cell. Since the fluorescein is more hydrophilic compared with FDA, the leakage of the fluorescein out of the cell occurs much more slowly than the uptake of FDA into the cell. This process was compared for the normal cells and the cancer cells.

[3] = tested on: cancer cells and normal cells; experiment: Imaging of cancer and normal cells under a fluorescence microscope; format: cell-based, rat; conditions: fluorescence microscope IX71, excitation 470-490 nm, filter 500 nm
Protocol: Imaging was performed by using FDAcr under a fluorescence microscope.

esophagus cancer lesion = experiment: Fluorescence endoscopic imaging of NMBA rat esophagus cancer model; format: in vivo; conditions: endoscope (FIG. 4)
Protocol: By using FDAcr, imaging of an NMBA rat, an esophagus cancer model, was performed. A rat (10-week old, male) was subcutaneously injected with 1 mg of NMBA 5 times per week for the first to 5th weeks, and once per week for 6th to 15th weeks, and used for the experiment after 16th week. The rat was anesthetized by intraperitoneal administration of Nembutal (1 mL/kg body weight) and fixed on a rest in the dorsal position to maintain the airway. An endoscope was inserted into the esophagus for observation. […] In the same manner as Example 5, a fluorescent endoscopic image was obtained by using Cy-7, a cyanine near-infrared fluorescent dye.

colon cancer lesion = experiment: Fluorescence endoscopic imaging of colon cancer model rat; format: in vivo; conditions: enema 15 ml of 100 μM in PBS, 3 minutes, fiberscope (FIG. 5)
Protocol: By using FEAcr, imaging of a colon cancer model rat was performed. A colon cancer model rat was anesthetized with ether, and inside the colon was washed with 0.6% aqueous acetic acid. The inside of the colon was washed two to three times with PBS maintained at 37° C., and then an enema with 15 ml of 100 μM FDAcr (PBS solution) was performed from the anus and the anus was clogged to stand for 3 minutes. After 3 minutes, the inside of the colon was washed two to three times with PBS maintained at 37° C. A fiberscope (BF-3C40) was inserted in the colon to observe pathological legions.

Row | Structure (SMILES) | average of fluorescence intensity ratio of RGK1 relative to RGM1 ([1]; compound 0-1 μM loaded 10 minutes, medium replaced, flow cytometry after a given time, among candidate compounds (FIG. 1)) | hydrolytic activity for FDA, RGK1 versus RGM1 [2] | performance for distinguishing cancer cells from normal cells (fluorescence intensity ratio) ([1]; flow cytometry as in Example 1, compared among ester derivatives of Table 1 (FIG. 2)) | fluorescence in cancer cells versus normal cells [3] | fluorescence intensity around esophagus cancer lesion versus normal tissues (esophagus cancer lesion) | fluorescence at colon cancer lesion (colon cancer lesion)
1 | CC(=O)Oc1ccc2c(c1)Oc1cc(OC(C)=O)ccc1C21OC(=O)c2ccccc21 [FDA, fluorescein diacetate] | highest fluorescence intensity ratio | about twice higher hydrolytic activity |  |  |  | 
2 | C=CC(=O)Oc1ccc2c(c1)Oc1cc(OC(=O)C=C)ccc1C21OC(=O)c2ccccc21 [FDAcr, fluorescein diacrylate] |  |  | superior performance for distinguishing cancer cells from normal cells | Strong fluorescence was observed in the cancer cells | higher than that of normal tissues | Strong fluorescence was observed at each colon cancer lesion
